Measurements: ChEMBL document CHEMBL1127541, “3,4-Dihydro-3-amino-2H-1-benzopyran derivatives as 5-HT1A receptor ligands and potential anxiolytic agents. 1. Synthesis and structure--activity relationship studies” (J Med Chem, 1994)

Legend:
Mus musculus [1] = assay: The in vivo compartmental activity was evaluated as minimum significant active dose measured by Forepaw treading test; format: functional
D(2) dopamine receptor = D(2) dopamine receptor (Bos taurus, UniProt P20288); assay: Binding affinity against D2 receptor in calf caudate nucleus
Chain of D(2) dopamine receptor (P20288 whole entry): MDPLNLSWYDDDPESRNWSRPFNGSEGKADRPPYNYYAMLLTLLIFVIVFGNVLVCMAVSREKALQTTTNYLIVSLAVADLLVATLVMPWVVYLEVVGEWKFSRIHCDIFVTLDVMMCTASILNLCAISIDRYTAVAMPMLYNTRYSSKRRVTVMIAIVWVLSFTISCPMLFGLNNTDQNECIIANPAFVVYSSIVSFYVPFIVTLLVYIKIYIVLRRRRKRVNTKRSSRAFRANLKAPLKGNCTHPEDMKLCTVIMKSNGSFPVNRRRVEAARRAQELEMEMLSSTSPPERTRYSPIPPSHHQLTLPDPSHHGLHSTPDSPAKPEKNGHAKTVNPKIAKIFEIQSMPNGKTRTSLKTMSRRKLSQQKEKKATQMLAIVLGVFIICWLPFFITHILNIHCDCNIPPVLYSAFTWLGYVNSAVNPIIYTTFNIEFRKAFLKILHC

[2] = target: T1, 5-hydroxytryptamine receptor 1A (Rattus norvegicus, UniProt P19327); assay: Binding affinity against 5-hydroxytryptamine 1A (5-HT1A) receptor in rat hippocampus membranes; format: cell membranes, Membrane
T1 sequence (P19327 whole entry): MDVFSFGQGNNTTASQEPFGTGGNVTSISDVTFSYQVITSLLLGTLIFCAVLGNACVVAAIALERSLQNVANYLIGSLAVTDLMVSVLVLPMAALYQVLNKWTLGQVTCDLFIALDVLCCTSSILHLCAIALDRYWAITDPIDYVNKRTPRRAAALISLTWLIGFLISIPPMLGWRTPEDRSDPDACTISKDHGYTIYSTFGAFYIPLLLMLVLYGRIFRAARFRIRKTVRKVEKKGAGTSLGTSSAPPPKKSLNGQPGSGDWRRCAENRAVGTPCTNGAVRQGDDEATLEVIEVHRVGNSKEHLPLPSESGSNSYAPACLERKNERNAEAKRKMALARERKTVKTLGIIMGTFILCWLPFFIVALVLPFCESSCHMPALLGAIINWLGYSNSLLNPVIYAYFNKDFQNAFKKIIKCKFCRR

Mus musculus [3] = assay: (§1) The in vivo compartmental activity was evaluated as minimum significant active dose measured by punishment test; format: functional
[4] = target: T2, Alpha-1A adrenergic receptor (Bos taurus, UniProt P18130); assay: Binding affinity against alpha-1 adrenergic receptor in calf frontal cortex; format: tissue-based
T2 sequence (P18130 whole entry): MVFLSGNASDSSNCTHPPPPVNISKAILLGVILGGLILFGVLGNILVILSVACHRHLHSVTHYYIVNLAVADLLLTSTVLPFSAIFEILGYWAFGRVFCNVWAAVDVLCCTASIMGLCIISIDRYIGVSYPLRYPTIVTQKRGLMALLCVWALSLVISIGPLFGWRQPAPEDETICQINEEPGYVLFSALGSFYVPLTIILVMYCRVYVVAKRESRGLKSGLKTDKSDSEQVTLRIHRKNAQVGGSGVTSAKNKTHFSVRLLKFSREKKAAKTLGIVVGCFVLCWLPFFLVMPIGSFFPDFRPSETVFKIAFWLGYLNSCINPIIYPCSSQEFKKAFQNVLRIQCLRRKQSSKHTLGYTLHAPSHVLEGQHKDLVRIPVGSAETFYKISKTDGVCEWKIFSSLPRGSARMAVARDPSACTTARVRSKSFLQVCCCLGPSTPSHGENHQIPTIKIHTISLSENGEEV

Mus musculus [5] = assay: The in vivo compartmental activity was evaluated as minimum significant active dose measured by Drug discrimination test; format: functional
[6] = target: 5-hydroxytryptamine receptor 2A (Bos taurus, UniProt Q75Z89); assay: Binding affinity towards 5-hydroxytryptamine 2 receptor in calf frontal cortex; format: tissue-based
Chain of 5-hydroxytryptamine receptor 2A (Q75Z89 whole entry): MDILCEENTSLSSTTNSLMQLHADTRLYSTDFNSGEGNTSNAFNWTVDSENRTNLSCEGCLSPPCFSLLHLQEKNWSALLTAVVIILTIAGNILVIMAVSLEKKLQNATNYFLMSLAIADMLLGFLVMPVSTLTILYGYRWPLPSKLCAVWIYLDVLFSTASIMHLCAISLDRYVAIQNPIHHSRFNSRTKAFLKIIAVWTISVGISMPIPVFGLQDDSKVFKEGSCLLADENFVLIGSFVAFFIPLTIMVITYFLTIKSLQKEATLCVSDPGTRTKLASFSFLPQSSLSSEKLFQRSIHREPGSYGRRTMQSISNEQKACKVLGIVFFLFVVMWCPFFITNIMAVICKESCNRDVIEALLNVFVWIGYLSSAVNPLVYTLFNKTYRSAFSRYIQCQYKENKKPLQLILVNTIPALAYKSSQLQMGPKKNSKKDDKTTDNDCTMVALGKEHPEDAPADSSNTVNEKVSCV

[7] = target: 5-hydroxytryptamine receptor 1B (Rattus norvegicus, UniProt P28564); assay: Binding affinity for 5-hydroxytryptamine 1B receptor in rat cortex, striatum and globus pallidus; format: tissue-based
Chain of 5-hydroxytryptamine receptor 1B (P28564 whole entry): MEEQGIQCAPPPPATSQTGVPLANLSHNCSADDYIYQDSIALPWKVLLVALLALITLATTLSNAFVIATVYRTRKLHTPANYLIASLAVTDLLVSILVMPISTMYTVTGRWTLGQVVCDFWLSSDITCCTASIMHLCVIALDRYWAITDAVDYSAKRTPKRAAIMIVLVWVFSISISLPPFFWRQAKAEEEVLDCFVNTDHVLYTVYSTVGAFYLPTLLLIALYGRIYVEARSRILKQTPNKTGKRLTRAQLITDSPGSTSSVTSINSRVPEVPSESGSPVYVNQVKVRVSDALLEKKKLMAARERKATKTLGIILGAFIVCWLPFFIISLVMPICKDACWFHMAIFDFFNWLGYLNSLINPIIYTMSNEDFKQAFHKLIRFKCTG

Mus musculus [8] = assay: The in vivo compartmental activity was evaluated as minimum significant active dose measured by lower lip retraction test; format: functional
[9] = Inhibitory concentration of compound was tested as agonist activity against forskolin activated adenylate cyclase; format: functional
Mus musculus [10] = organism: Mus musculus; assay: Inhibitory concentration of compound was tested as agonist activity against DRN firing in the dorsal raphe nucleus; format: functional, organism-based
[11] = target: T3, Alpha-2A adrenergic receptor (Bos taurus, UniProt Q28838); assay: Binding affinity against alpha-2 adrenergic receptor in calf frontal cortex; format: tissue-based
T3 sequence (Q28838 whole entry): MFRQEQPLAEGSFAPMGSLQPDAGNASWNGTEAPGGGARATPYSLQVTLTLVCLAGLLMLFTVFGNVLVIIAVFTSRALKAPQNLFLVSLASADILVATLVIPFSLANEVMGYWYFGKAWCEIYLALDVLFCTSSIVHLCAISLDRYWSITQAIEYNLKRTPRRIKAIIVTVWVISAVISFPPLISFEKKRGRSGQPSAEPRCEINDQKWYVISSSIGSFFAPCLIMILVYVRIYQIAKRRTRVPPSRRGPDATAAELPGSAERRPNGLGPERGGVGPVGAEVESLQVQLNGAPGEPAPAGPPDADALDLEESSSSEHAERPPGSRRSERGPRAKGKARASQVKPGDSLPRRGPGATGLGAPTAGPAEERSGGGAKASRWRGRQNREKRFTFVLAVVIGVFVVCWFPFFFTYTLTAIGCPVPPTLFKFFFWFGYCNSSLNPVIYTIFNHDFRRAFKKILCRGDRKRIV

Mus musculus [12] = assay: The in vivo compartmental activity was evaluated as minimum significant active dose measured by Dark/light box test; format: functional
D(1A) dopamine receptor = D(1A) dopamine receptor (Bos taurus, UniProt Q95136); assay: Binding affinity towards dopamine receptor D1 in calf striatum; format: tissue-based
Chain of D(1A) dopamine receptor (Q95136 whole entry): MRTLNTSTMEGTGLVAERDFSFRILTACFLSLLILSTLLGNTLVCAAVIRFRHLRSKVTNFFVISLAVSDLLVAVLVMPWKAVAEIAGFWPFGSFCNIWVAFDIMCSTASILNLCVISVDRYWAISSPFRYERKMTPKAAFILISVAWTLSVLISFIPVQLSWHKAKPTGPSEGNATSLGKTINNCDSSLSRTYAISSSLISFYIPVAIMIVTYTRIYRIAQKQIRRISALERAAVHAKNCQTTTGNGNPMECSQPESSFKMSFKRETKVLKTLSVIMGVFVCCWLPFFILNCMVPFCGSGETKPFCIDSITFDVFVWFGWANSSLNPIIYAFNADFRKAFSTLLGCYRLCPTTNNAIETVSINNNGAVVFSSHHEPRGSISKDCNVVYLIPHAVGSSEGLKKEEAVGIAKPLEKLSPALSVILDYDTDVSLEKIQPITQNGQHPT

[13] = Inhibitory concentration of compound was tested as agonist activity against DRN serotonergic neurons firing in the dorsal raphe nucleus; format: functional, tissue-based, Rattus norvegicus
Mus musculus [14] = assay: as §1; format: ADME, organism-based

Work on `CCCN(CCCCN1C(=O)CC2(CCCC2)CC1=O)C1COc2cccc(OC)c2C1.O=C(O)C(=O)O` (single isomer, unassigned; (-)) yielded an FPT msad (Mus musculus [1]) of 32 mg/kg, an IC50 (D(2) dopamine receptor) of 0.01 µM and an IC50 [2] of 0.002 µM. The Punishment test msad (Mus musculus [3]) was 1 mg/kg, the IC50 [4] was 20 µM and the DDT msad (Mus musculus [5]) was 3 mg/kg. For the same compound, the IC50 [6] was 5 µM, the IC50 [7] was 6 µM and the LLR msad (Mus musculus [8]) was 8 mg/kg. The IC50 [9] was 0.248 µM, the IC50 (Mus musculus [10]) was about 0.13 µM and the IC50 [11] was 0.02 µM. It also gave a DLBT (Mus musculus [12]) of over 2 mg/kg and an IC50 (D(1A) dopamine receptor) of 20 µM.

For `CCCN(CCCCN1C(=O)CC2(CCCC2)CC1=O)C1COc2cccc(OC)c2C1.O=C(O)C(=O)O` (stereo in doubt; 9g), the IC50 (D(2) dopamine receptor) was 0.01 µM, the IC50 [2] was 0.0002 µM and the Punishment test msad (Mus musculus [3]) was 0.06 mg/kg. For the same compound, the IC50 [4] was 6 µM, the DDT msad (Mus musculus [5]) was 0.3 mg/kg and the IC50 [6] was 1 µM. The IC50 [7] was 5 µM, the IC50 [9] was 0.0263 µM and the IC50 [11] was 10 µM. For the same compound, the DLBT (Mus musculus [12]) was 2 mg/kg and the IC50 (D(1A) dopamine receptor) was 40 µM.

`CCCN(CCC)C1CCc2cccc(O)c2C1` (centres undefined) [8-OH-DPAT] gave an IC50 [13] of about 0.005 µM, an IC50 (D(2) dopamine receptor) of 0.8 µM and an IC50 [4] of 30 µM. For the same compound, the IC50 [6] was 49 µM, the IC50 [9] was about 0.008 µM and the IC50 [11] was 1 µM. It also gave an IC50 (D(1A) dopamine receptor) of over 1000 µM and a Punishment test msad (Mus musculus [14]) of 0.1 mg/kg.

`CCCN(CCCCN1C(=O)CC2(CCCC2)CC1=O)C1COc2cccc(OC)c2C1.O=C(O)C(=O)O` (single isomer, unassigned; (+)) gave an FPT msad (Mus musculus [1]) of 8 mg/kg, an IC50 (D(2) dopamine receptor) of 3 µM and an IC50 [2] of 0.0003 µM. For the same compound, the Punishment test msad (Mus musculus [3]) was 0.03 mg/kg, the IC50 [4] was 40 µM and the DDT msad (Mus musculus [5]) was 0.1 mg/kg. For the same compound, the IC50 [6] was 3 µM, the IC50 [7] was 10 µM and the LLR msad (Mus musculus [8]) was 4 mg/kg. It also gave an IC50 [9] of 0.0102 µM, an IC50 (Mus musculus [10]) of about 0.006 µM and an IC50 [11] of 0.02 µM. It also gave a DLBT (Mus musculus [12]) of 1 mg/kg and an IC50 (D(1A) dopamine receptor) of 40 µM.

`COc1cccc2c1CC(N1CCCC1)CO2` (centres undefined) showed an IC50 (D(2) dopamine receptor) of 2.5 µM, an IC50 [2] of 0.007 µM and an IC50 [4] of 40 µM. The IC50 [6] was 60 µM, the IC50 [7] was 100 µM and the IC50 [11] was 3 µM. For the same compound, the IC50 (D(1A) dopamine receptor) was 1000 µM.

With `CCCN(CCCCN1C(=O)c2ccccc2C1=O)C1COc2cccc(OC)c2C1` (centres undefined) the IC50 (D(2) dopamine receptor) was 0.03 µM, the IC50 [2] was 0.05 µM and the IC50 [4] was 5 µM. For the same compound, the IC50 [6] was 30 µM, the IC50 [7] was 0.4 µM and the IC50 [11] was 2 µM. The IC50 (D(1A) dopamine receptor) was 40 µM.

`CCCN(CCC)C1COc2ccccc2C1` (centres undefined) gave an IC50 (D(2) dopamine receptor) of 0.06 µM, an IC50 [2] of 0.4 µM and an IC50 [4] of over 1000 µM. It also gave an IC50 [6] of 80 µM, an IC50 [7] of over 1000 µM and an IC50 [11] of 20 µM. For the same compound, the IC50 (D(1A) dopamine receptor) was over 1000 µM.

Work on `COc1cccc2c1CC(NCCCCN1C(=O)c3ccccc3C1=O)CO2` (centres undefined) yielded an IC50 (D(2) dopamine receptor) of 5 µM, an IC50 [2] of 0.09 µM and an IC50 [4] of 1000 µM. For the same compound, the IC50 [6] was 0.6 µM, the IC50 [7] was 7 µM and the IC50 [11] was 4 µM. It also gave an IC50 (D(1A) dopamine receptor) of 30 µM.

`CCCN(CCCCNS(=O)(=O)c1ccc(C)cc1)C1COc2cccc(OC)c2C1` (single isomer, unassigned; (-)) gave an IC50 (D(2) dopamine receptor) of 0.06 µM, an IC50 [2] of 0.02 µM and an IC50 [4] of 7 µM. For the same compound, the IC50 [6] was 5 µM, the IC50 [7] was 20 µM and the IC50 [11] was 2 µM. The IC50 (D(1A) dopamine receptor) was 20 µM.

Work on `CCCN(CCC)C1COc2cccc(O)c2C1` (centres undefined) yielded an IC50 (D(2) dopamine receptor) of 0.4 µM, an IC50 [2] of 0.004 µM and an IC50 [4] of 100 µM. For the same compound, the IC50 [6] was over 100 µM, the IC50 [7] was over 100 µM and the IC50 [11] was 2 µM. The IC50 (D(1A) dopamine receptor) was 100 µM.

`CCCN(CCCN1C(=O)CC2(CCCC2)CC1=O)C1COc2cccc(OC)c2C1` (centres undefined) gave an IC50 (D(2) dopamine receptor) of 0.6 µM, an IC50 [2] of 0.001 µM and an IC50 [4] of 8 µM. It also gave an IC50 [6] of 0.8 µM, an IC50 [7] of 20 µM and an IC50 [11] of 6 µM. It also gave an IC50 (D(1A) dopamine receptor) of 10 µM.

For `CCCN(CCCCNS(=O)(=O)c1ccc(C)cc1)C1COc2cccc(OC)c2C1` (stereo in doubt; 15d), the IC50 (D(2) dopamine receptor) was 0.2 µM, the IC50 [2] was 0.002 µM and the IC50 [4] was 3 µM. For the same compound, the IC50 [6] was 10 µM, the IC50 [7] was 8 µM and the IC50 [11] was 10 µM. It also gave an IC50 (D(1A) dopamine receptor) of 30 µM.

Compound `CCCN(CCNS(=O)(=O)c1ccc(C)cc1)C1COc2cccc(OC)c2C1` (stereo in doubt; (-)-15b) has an IC50 (D(2) dopamine receptor) of 0.05 µM, an IC50 [2] of 0.005 µM and an IC50 [4] of 1000 µM. For the same compound, the IC50 [6] was 10 µM, the IC50 [7] was over 1000 µM and the IC50 [11] was 10 µM. For the same compound, the IC50 (D(1A) dopamine receptor) was 60 µM.

`CCCN(CCCON1C(=O)CC2(CCCC2)CC1=O)C1COc2cccc(OC)c2C1` (centres undefined) showed an IC50 (D(2) dopamine receptor) of 0.02 µM, an IC50 [2] of 0.001 µM and an IC50 [4] of 9 µM. The IC50 [6] was 4 µM, the IC50 [7] was 40 µM and the IC50 [11] was 2 µM. The IC50 (D(1A) dopamine receptor) was 20 µM.

In the case of `CCCN(CCCCN1CC2CCCC2C1=O)C1COc2cccc(OC)c2C1` (centres undefined), the IC50 (D(2) dopamine receptor) is reported as 0.003 µM, the IC50 [2] is reported as 0.001 µM and the IC50 [4] is reported as 5 µM. The IC50 [6] was 2 µM, the IC50 [7] was 30 µM and the IC50 [11] was 4 µM. For the same compound, the IC50 (D(1A) dopamine receptor) was 60 µM.
